Reference: PubChem BioAssay (NCI)
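Protocol summary: plate cells (96-well), add compound at 5 concentrations, incubate 48 h, interpolate endpoints linearly. At the TGI there is no net growth.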

tested on: PC-3 prostate; experiment: NCI anticancer screen, dose series, 48 h

Q: `CCOC(=O)C(=O)/C(=C/n1c(=S)[nH]c2ccc([N+](=O)[O-])cc21)C(=O)OCC` was tested. Which TGI did it give?
A: > 100 µM

Q: For `CCOC(=O)c1csc(NC(=O)CN(C)C)n1`, which TGI is on record?
A: > 100 µM

Q: Which TGI does the source give for `CC1(CO)COC(C)(C)OC1` here?
A: > 100 µM

Q: How did the TGI turn out when `CC12CP(=O)(c3ccccc3)CC1c1ccccc1C2c1ccccc1` (centres undefined) was run?
A: 27.1 µM

Q: With `CN(C)/C=C1\CCc2ccc([N+](=O)[O-])cc2C1=O` as the compound, how does the TGI read?
A: > 100 µM

tested on: MDA-N; experiment: NCI anticancer screen, dose series, 48 h

Q: For `CCOC(=O)C(=O)/C(=C/n1c(=S)[nH]c2ccc([N+](=O)[O-])cc21)C(=O)OCC`, which TGI is on record?
A: > 100 µM

Q: With `CCOC(=O)c1csc(NC(=O)CN(C)C)n1` as the compound, how does the TGI read?
A: > 100 µM

Q: `CC1(CO)COC(C)(C)OC1` was tested. Which TGI did it give?
A: > 100 µM

Q: How did the TGI turn out when `CC12CP(=O)(c3ccccc3)CC1c1ccccc1C2c1ccccc1` (centres undefined) was run?
A: 33.6 µM

Q: For `CN(C)/C=C1\CCc2ccc([N+](=O)[O-])cc2C1=O`, which TGI is on record?
A: 38.1 µM

tested on: OVCAR-8 ovarian; experiment: NCI anticancer screen, dose series, 48 h

Q: `CCOC(=O)C(=O)/C(=C/n1c(=S)[nH]c2ccc([N+](=O)[O-])cc21)C(=O)OCC` was tested. Which TGI did it give?
A: > 100 µM

Q: For `CCOC(=O)c1csc(NC(=O)CN(C)C)n1`, which TGI is on record?
A: > 100 µM

Q: `CC1(CO)COC(C)(C)OC1` was tested. Which TGI did it give?
A: > 100 µM

Q: `CC12CP(=O)(c3ccccc3)CC1c1ccccc1C2c1ccccc1` (centres undefined) was tested. Which TGI did it give?
A: 28.6 µM

Q: Which TGI does the source give for `CN(C)/C=C1\CCc2ccc([N+](=O)[O-])cc2C1=O` here?
A: > 100 µM

tested on: A498 renal; experiment: NCI anticancer screen, dose series, 48 h

Q: With `CCOC(=O)C(=O)/C(=C/n1c(=S)[nH]c2ccc([N+](=O)[O-])cc21)C(=O)OCC` as the compound, how does the TGI read?
A: > 100 µM

Q: `CCOC(=O)c1csc(NC(=O)CN(C)C)n1` was tested. Which TGI did it give?
A: > 100 µM

Q: How did the TGI turn out when `CC1(CO)COC(C)(C)OC1` was run?
A: > 100 µM

Q: With `CC12CP(=O)(c3ccccc3)CC1c1ccccc1C2c1ccccc1` (centres undefined) as the compound, how does the TGI read?
A: > 100 µM

Q: For `CN(C)/C=C1\CCc2ccc([N+](=O)[O-])cc2C1=O`, which TGI is on record?
A: > 100 µM

tested on: UACC-62 melanoma; experiment: NCI anticancer screen, dose series, 48 h

Q: `CCOC(=O)C(=O)/C(=C/n1c(=S)[nH]c2ccc([N+](=O)[O-])cc21)C(=O)OCC` was tested. Which TGI did it give?
A: > 100 µM

Q: `CCOC(=O)c1csc(NC(=O)CN(C)C)n1` was tested. Which TGI did it give?
A: > 100 µM

Q: With `CC12CP(=O)(c3ccccc3)CC1c1ccccc1C2c1ccccc1` (centres undefined) as the compound, how does the TGI read?
A: > 100 µM

Q: How did the TGI turn out when `CN(C)/C=C1\CCc2ccc([N+](=O)[O-])cc2C1=O` was run?
A: 76.4 µM

tested on: HCT-15 colon; experiment: NCI anticancer screen, dose series, 48 h

Q: For `CCOC(=O)c1csc(NC(=O)CN(C)C)n1`, which TGI is on record?
A: > 100 µM

Q: For `CC1(CO)COC(C)(C)OC1`, which TGI is on record?
A: > 100 µM

Q: `CC12CP(=O)(c3ccccc3)CC1c1ccccc1C2c1ccccc1` (centres undefined) was tested. Which TGI did it give?
A: 27.2 µM

Q: How did the TGI turn out when `CN(C)/C=C1\CCc2ccc([N+](=O)[O-])cc2C1=O` was run?
A: > 100 µM

tested on: NCI-H460 lung; experiment: NCI anticancer screen, dose series, 48 h

Q: How did the TGI turn out when `CCOC(=O)C(=O)/C(=C/n1c(=S)[nH]c2ccc([N+](=O)[O-])cc21)C(=O)OCC` was run?
A: > 100 µM

Q: `CCOC(=O)c1csc(NC(=O)CN(C)C)n1` was tested. Which TGI did it give?
A: > 100 µM

Q: How did the TGI turn out when `CC1(CO)COC(C)(C)OC1` was run?
A: > 100 µM

Q: Which TGI does the source give for `CC12CP(=O)(c3ccccc3)CC1c1ccccc1C2c1ccccc1` (centres undefined) here?
A: 27.6 µM

Q: How did the TGI turn out when `CN(C)/C=C1\CCc2ccc([N+](=O)[O-])cc2C1=O` was run?
A: > 100 µM

tested on: NCI-H522 lung; experiment: NCI anticancer screen, dose series, 48 h

Q: How did the TGI turn out when `CC1(CO)COC(C)(C)OC1` was run?
A: > 100 µM

Q: How did the TGI turn out when `CN(C)/C=C1\CCc2ccc([N+](=O)[O-])cc2C1=O` was run?
A: > 100 µM

tested on: SNB-75 CNS; experiment: NCI anticancer screen, dose series, 48 h

Q: For `CCOC(=O)C(=O)/C(=C/n1c(=S)[nH]c2ccc([N+](=O)[O-])cc21)C(=O)OCC`, which TGI is on record?
A: > 100 µM

Q: For `CCOC(=O)c1csc(NC(=O)CN(C)C)n1`, which TGI is on record?
A: > 100 µM

Q: Which TGI does the source give for `CC1(CO)COC(C)(C)OC1` here?
A: > 100 µM

Q: For `CN(C)/C=C1\CCc2ccc([N+](=O)[O-])cc2C1=O`, which TGI is on record?
A: > 100 µM

tested on: MCF7 breast; experiment: NCI anticancer screen, dose series, 48 h

Q: With `CCOC(=O)C(=O)/C(=C/n1c(=S)[nH]c2ccc([N+](=O)[O-])cc21)C(=O)OCC` as the compound, how does the TGI read?
A: > 100 µM

Q: How did the TGI turn out when `CCOC(=O)c1csc(NC(=O)CN(C)C)n1` was run?
A: > 100 µM

Q: `CC1(CO)COC(C)(C)OC1` was tested. Which TGI did it give?
A: > 100 µM

Q: `CC12CP(=O)(c3ccccc3)CC1c1ccccc1C2c1ccccc1` (centres undefined) was tested. Which TGI did it give?
A: > 100 µM

Q: How did the TGI turn out when `CN(C)/C=C1\CCc2ccc([N+](=O)[O-])cc2C1=O` was run?
A: 48 µM

tested on: K-562 leukemia; experiment: NCI anticancer screen, dose series, 48 h

Q: `CCOC(=O)C(=O)/C(=C/n1c(=S)[nH]c2ccc([N+](=O)[O-])cc21)C(=O)OCC` was tested. Which TGI did it give?
A: > 100 µM

Q: How did the TGI turn out when `CCOC(=O)c1csc(NC(=O)CN(C)C)n1` was run?
A: > 100 µM

Q: How did the TGI turn out when `CC12CP(=O)(c3ccccc3)CC1c1ccccc1C2c1ccccc1` (centres undefined) was run?
A: 25.5 µM

Q: Which TGI does the source give for `CN(C)/C=C1\CCc2ccc([N+](=O)[O-])cc2C1=O` here?
A: 56.8 µM

tested on: U251 CNS; experiment: NCI anticancer screen, dose series, 48 h

Q: For `CCOC(=O)C(=O)/C(=C/n1c(=S)[nH]c2ccc([N+](=O)[O-])cc21)C(=O)OCC`, which TGI is on record?
A: > 100 µM

Q: Which TGI does the source give for `CCOC(=O)c1csc(NC(=O)CN(C)C)n1` here?
A: > 100 µM

Q: How did the TGI turn out when `CC1(CO)COC(C)(C)OC1` was run?
A: > 100 µM

Q: `CC12CP(=O)(c3ccccc3)CC1c1ccccc1C2c1ccccc1` (centres undefined) was tested. Which TGI did it give?
A: 36.7 µM

Q: With `CN(C)/C=C1\CCc2ccc([N+](=O)[O-])cc2C1=O` as the compound, how does the TGI read?
A: > 100 µM

tested on: RXF 393 renal; experiment: NCI anticancer screen, dose series, 48 h

Q: With `CCOC(=O)C(=O)/C(=C/n1c(=S)[nH]c2ccc([N+](=O)[O-])cc21)C(=O)OCC` as the compound, how does the TGI read?
A: > 100 µM

Q: How did the TGI turn out when `CCOC(=O)c1csc(NC(=O)CN(C)C)n1` was run?
A: > 100 µM

Q: `CC1(CO)COC(C)(C)OC1` was tested. Which TGI did it give?
A: > 100 µM

Q: With `CC12CP(=O)(c3ccccc3)CC1c1ccccc1C2c1ccccc1` (centres undefined) as the compound, how does the TGI read?
A: 46.6 µM

Q: With `CN(C)/C=C1\CCc2ccc([N+](=O)[O-])cc2C1=O` as the compound, how does the TGI read?
A: > 100 µM

tested on: M14 melanoma; experiment: NCI anticancer screen, dose series, 48 h

Q: How did the TGI turn out when `CCOC(=O)C(=O)/C(=C/n1c(=S)[nH]c2ccc([N+](=O)[O-])cc21)C(=O)OCC` was run?
A: > 100 µM

Q: With `CCOC(=O)c1csc(NC(=O)CN(C)C)n1` as the compound, how does the TGI read?
A: > 100 µM

Q: `CC12CP(=O)(c3ccccc3)CC1c1ccccc1C2c1ccccc1` (centres undefined) was tested. Which TGI did it give?
A: 31.8 µM

Q: With `CN(C)/C=C1\CCc2ccc([N+](=O)[O-])cc2C1=O` as the compound, how does the TGI read?
A: > 100 µM

tested on: KM12 colon; experiment: NCI anticancer screen, dose series, 48 h

Q: How did the TGI turn out when `CCOC(=O)C(=O)/C(=C/n1c(=S)[nH]c2ccc([N+](=O)[O-])cc21)C(=O)OCC` was run?
A: > 100 µM

Q: `CCOC(=O)c1csc(NC(=O)CN(C)C)n1` was tested. Which TGI did it give?
A: > 100 µM
